Here are results for 25 molecules from patent US11479546B2, “Antimalarial hexahydropyrimidine analogues” (UCB Biopharma SRL, priority 2018, dated 2022).

Structures are written as SMILES.

As a reminder, the IC50 is the concentration at which inhibition is half-maximal. Low values mean greater potency, high ones weaker potency.

The subject of the experiment is Plasmodium falciparum 3D7. The experiment can be described thus: P. falciparum 3D7 asexual blood stage assay, Assay Procedure Version 1 (SYBR green readout). The settings on record: 3D7, Erythrocyte, Version 1 of the assay procedure (no asterisk), 72 h incubation in infected erythrocytes, 10,000 nM to 0.51 nM. The class given is cell-based. Here is the method:
Asexual Blood Stage Assay
The assay used to measure the effect of test compounds on a bloodstream stage of Plasmodium falciparum 3D7 strain employs SYBR green as the readout. This is a dye that binds to double stranded deoxyribonucleic acid (DNA) with a resulting increase in fluorescence, allowing detection of P. falciparum DNA in infected erythrocytes, and thereby providing a measure of parasite growth and propagation.
P. falciparum Culture Maintenance
Erythrocytes (A+blood) were prepared for both parasite culture and assay by washing 4 times with incomplete media (15.9 g RPMI 1640 (25 mM HEPES, L-glutamine), 1 g NaHCO3, 2 g glucose, 400 μL gentacin (500 mg/mL), 2 mL hypoxanthine solution (13.6 g/L in 0.1M NaOH pH 7.3) in 1 litre of media). The cells were centrifuged at 1800 g for 5 minutes, before decanting the supernatant and re-suspending in fresh incomplete media. On the final wash, the cells were re-suspended in complete media (incomplete media with 5 g/L AlbumaxII), and centrifuged at 1800 g for 3 minutes. This cell sediment was treated as 100% haematocrit.
P. falciparum 3D7 was cultured in erythrocytes at 5% haematocrit in complete media at 37° C. (1% O2, 3% CO2, balance N2). Cultures were split on a weekly basis to achieve a 1% parasitaemia in erythrocites at 5% haematocrit in fresh media. Culture media is replaced by fresh media every other day (2 times during the week).
Assay Procedure—Version 1
On day 1, test compounds were added to assay plates using Echo dispensing technology (3 fold dilution and 10 points titration). 50 nL of each compound dilution was added to 50 μL of culture (5% haematocrit, 0.5% parasitaemia) and incubated for 72 h at 37° C. (1% O2, 3% CO2, balance N2). Final concentrations of test compounds ranged from 10,000 nM to 0.51 nM, in […].
On day 4, 10 μL SYBR green (Invitrogen S7563 supplied as 10,000×concentrate in DMSO) pre-diluted to 3× concentrate with Lysis buffer (20 mM Tris pH 7.9, 5% EDTA, 0.16% w/v, 1.6% TX100 v/v) was added to the cultures and incubated in the dark, overnight, at room temperature.
On day 5, fluorescent signal was measured using a BioTek plate reader (excitation 485 nm, emission 528 nm). All data were processed using IDBS ActivityBase. Raw data were converted into percent inhibition through linear regression by setting the high inhibition control as 100% and the no inhibition control as 0%. Quality control criteria for passing plates were as follows: Z′>0.5, S:B>3, % CV(no inhibition control)<15. The formula used to calculate Z′ is
All EC50 curve fitting was undertaken using the following 4 parametric equation:
[formula] where A=% inhibition at bottom; B=% inhibition at top; C=EC50; D=slope; x=inhibitor concentration; and y=% inhibition. […] Assay Procedure—Version 2
The molecule `Cc1ccc(Nc2cccc([C@]3(C)CC(=O)N(C4CCOCC4)C(=N)N3)c2Cl)cc1` [Example 160, (6S)-6-[2-Chloro-3-(4-methyl-anilino)phenyl]-2-imino-6-methyl-3-(tetrahydropyran-4-yl)hexahydropyrimidin-4-one] registered an IC50 of 1680 nM.
The figure for `C[C@@]1(c2cccc(Nc3ccc(F)cc3F)c2Cl)CC(=O)N([C@H]2C[C@@](C)(O)C2)C(=N)N1` [Example 120, (6S)-6-[2-Chloro-3-(2,4-difluoroanilino)phenyl]-3-(3-hydroxy-3-methylcyclobutyl)-2-imino-6-methylhexahydro-pyrimidin-4-one] is 652 nM.
The figure for `C[C@@]1(c2cccc(Nc3ccccc3)c2Cl)CC(=O)N([C@@H]2CCOC2)C(=N)N1` (relative stereo) [Example 6, (6S)-6-(3-Anilino-2-chloro-phenyl)-2-imino-6-methyl-3-[(3S or 3R*)-tetrahydrofuran-3-yl]hexahydropyrimidin-4-one] is 70 nM; for `CC1(CN2C(=N)N[C@](C)(c3cccc(Nc4ccc(F)cc4)c3Cl)CC2=O)COC1` [Example 175, (6S)-6-[2-Chloro-3-(4-fluoro-anilino)phenyl]-2-imino-6-methyl-3-[(3-methyloxetan-3-yl)methyl]hexahydropyrimidin-4-one] it is 2820 nM.
The result for `C[C@@]1(c2cccc(Nc3cc(F)c(F)cc3F)c2Cl)CC(=O)N(C2CCOCC2)C(=N)N1` [Example 38, (6S)-6-[2-Chloro-3-(2,4,5-trifluoroanilino)phenyl]-2-imino-6-methyl-3-(tetrahydro-pyran-4-yl)hexahydropyrimidin-4-one] reads 811 nM; that for `C[C@@]1(c2ccc(F)c(Nc3ccc(F)cc3)c2Cl)CC(=O)N(C2CCOCC2)C(=N)N1` [Example 206, (6S)-6-[2-Chloro-4-fluoro-3-(4-fluoroanilino)phenyl]-2-imino-6-methyl-3-(tetrahydro-pyran-4-yl)hexahydropyrimidin-4-one], 243 nM; that for `C[C@@]1(c2cccc(Nc3ccccc3)c2Cl)CC(=O)N([C@H]2CCOC2)C(=N)N1` (relative stereo) [Example 5, (6S)-6-(3-Anilino-2-chloro-phenyl)-2-imino-6-methyl-3-[(3S or 3R*)-tetrahydrofuran-3-yl]hexahydropyrimidin-4-one], 120 nM.
The molecule `C[C@@]1(c2cccc(Nc3cccc(C#N)c3)c2Cl)CC(=O)N(C2CCOCC2)C(=N)N1` [Example 9, 3-{2-Chloro-3-[(4S)-2-imino-4-methyl-6-oxo-1-(tetrahydro-pyran-4-yl)hexahydropyrimidin-4-yl]anilino}benzonitrile] returned an IC50 of 333 nM.
The figure for `C[C@@]1(c2cccc(Nc3ccccc3)c2Cl)CC(=O)N(CC2(O)CC2)C(=N)N1` [Example 1, (6S)-6-(3-Anilino-2-chloro-phenyl)-3-[(1-hydroxy-cyclopropyl)methyl]-2-imino-6-methylhexahydropyrimidin-4-one] is 400 nM; for `C[C@@]1(c2cccc(Nc3ccc(C#N)c(Cl)c3)c2Cl)CC(=O)N(C2CCOCC2)C(=N)N1` [Example 24, 2-Chloro-4-{2-chloro-3-[(4S)-2-imino-4-methyl-6-oxo-1-(tetrahydropyran-4-yl)-hexahydropyrimidin-4-yl]-anilino}benzonitrile] it is 1670 nM.
The result for `C[C@@]1(c2cccc(Nc3ccccc3)c2Cl)CC(=O)N([C@H]2C[C@@](C)(O)C2)C(=N)N1` [Example 13, (6S)-6-(3-Anilino-2-chloro-phenyl)-3-(3-hydroxy-3-methyl-cyclobutyl)-2-imino-6-methyl-hexahydropyrimidin-4-one] reads 230 nM; that for `Cc1cc(Nc2cccc([C@]3(C)CC(=O)N(C4CCOCC4)C(=N)N3)c2Cl)ccc1F` [Example 10, (6S)-6-[2-Chloro-3-(4-fluoro-3-methylanilino)phenyl]-2-imino-6-methyl-3-(tetrahydropyran-4-yl)hexahydropyrimidin-4-one], 690 nM; that for `C[C@@]1(c2cccc(Nc3ccc(OC(F)F)cc3)c2Cl)CC(=O)N(C2CCOCC2)C(=N)N1` [Example 37, (6S)-6-{2-Chloro-3-[4-(difluoro-methoxy)anilino]phenyl}-2-imino-6-methyl-3-(tetrahydro-pyran-4-yl)hexahydropyrimidin-4-one], 1150 nM.
The figure for `C[C@@]1(c2cccc(Nc3cccnc3)c2Cl)CC(=O)N(C2CCOCC2)C(=N)N1` [Example 20, (6S)-6-[2-Chloro-3-(pyridin-3-ylamino)phenyl]-2-imino-6-methyl-3-(tetrahydropyran-4-yl)hexahydropyrimidin-4-one] is 2310 nM.
Molecule `C[C@@]1(c2cccc(Nc3cccc(C(F)(F)F)c3)c2Cl)CC(=O)N(C2CCOCC2)C(=N)N1` [Example 163, (6S)-6-{2-Chloro-3-[3-(trifluoromethyl)anilino]-phenyl}-2-imino-6-methyl-3-(tetrahydropyran-4-yl)-hexahydropyrimidin-4-one] gave an IC50 of 913 nM. Compared with the last molecule, the IC50 is about 2.5-fold lower.
The figure for `C[C@@]1(c2cccc(Nc3cn4ccccc4n3)c2Cl)CC(=O)N(C2CCOCC2)C(=N)N1` [Example 35, (6S)-6-[2-Chloro-3-(imidazo-[1,2-a]pyridin-2-ylamino)-phenyl]-2-imino-6-methyl-3-(tetrahydropyran-4-yl)-hexahydropyrimidin-4-one] is 2380 nM.
The figure for `C[C@@]1(c2cccc(Nc3ccc(F)cc3)c2Cl)CC(=O)N([C@H]2C[C@@H]3CC[C@H]2O3)C(=N)N1` (racemic) [Example 188, (6S)-6-[2-Chloro-3-(4-fluoro-anilino)phenyl]-2-imino-6-methyl-3-[(1RS,2SR,4SR)-7-oxabicyclo[2.2.1]heptan-3-yl]-hexahydropyrimidin-4-one] is 3460 nM; for `C[C@@]1(c2cccc(Nc3ccc(C#N)nc3)c2Cl)CC(=O)N(C2CCOCC2)C(=N)N1` [Example 40, 5-{2-Chloro-3-[(4S)-2-imino-4-methyl-6-oxo-1-(tetrahydro-pyran-4-yl)hexahydropyrimidin-4-yl]anilino}pyridine-2-carbo-nitrile] it is 1510 nM; for `C[C@@]1(c2cccc(Nc3ccccc3Cl)c2Cl)CC(=O)N(C2CCOCC2)C(=N)N1` [Example 15, (6S)-6-[2-Chloro-3-(2-chloro-anilino)phenyl]-2-imino-6-methyl-3-(tetrahydropyran-4-yl)hexahydropyrimidin-4-one] it is 1530 nM.
The figure for `CC1(O)CC(N2C(=N)N[C@](C)(c3cccc(Nc4ccc(F)cc4)c3Cl)CC2=O)C1` (stereo partly drawn) [Example 172, (6S)-6-[2-Chloro-3-(4-fluoro-anilino)phenyl]-3-(3-hydroxy-3-methylcyclobutyl)-2-imino-6-methylhexahydropyrimidin-4-one] is 228 nM; for `COc1ccc(F)cc1Nc1cccc([C@]2(C)CC(=O)N(C3CCOCC3)C(=N)N2)c1Cl` [Example 27, (6S)-6-[2-Chloro-3-(5-fluoro-2-methoxyanilino)phenyl]-2-imino-6-methyl-3-(tetrahydro-pyran-4-yl)hexahydropyrimidin-4-one] it is 236 nM.
In the case of `COC(=O)c1cccc(Nc2cccc([C@]3(C)CC(=O)N(C4CCOCC4)C(=N)N3)c2Cl)c1` [Example 166, Methyl 3-{2-chloro-3-[(4S)-2-imino-4-methyl-6-oxo-1-(tetrahydropyran-4-yl)-hexahydropyrimidin-4-yl]-anilino}benzoate], half-maximal inhibition (IC50) required 1780 nM.
Molecule `COc1cc(F)cc(Nc2cccc([C@]3(C)CC(=O)N(C4CCOCC4)C(=N)N3)c2Cl)c1` [Example 23, (6S)-6-[2-Chloro-3-(3-fluoro-5-methoxyanilino)phenyl]-2-imino-6-methyl-3-(tetrahydro-pyran-4-yl)hexahydropyrimidin-4-one] showed an IC50 of 1340 nM.
The result for `C[C@@]1(c2cccc(Nc3ccc(F)cc3)c2Cl)CC(=O)N(C2CC3(COC3)C2)C(=N)N1` [Example 171, (6S)-6-[2-Chloro-3-(4-fluoro-anilino)phenyl]-2-imino-6-methyl-3-(2-oxaspiro[3.3]-heptan-6-yl)hexahydro-pyrimidin-4-one] reads 1140 nM; that for `C[C@@]1(c2cccc(Nc3ccccc3)c2Cl)CC(=O)N(C2CCOCC2)C(=N)N1` [Example 2, (6S)-6-(3-Anilino-2-chloro-phenyl)-2-imino-6-methyl-3-(tetrahydropyran-4-yl)-hexahydropyrimidin-4-one], 150 nM.
